Laboratory results published in patent US20240360178A1, “MACROCYCLIC IMMUNOMODULATORS” (Bristol-Myers Squibb Company, priority 2021, published 2024).
Positions of bridges follow the written chain, without caps; N, C: chain ends. Non-standard residues stand in square brackets, D forms with d. Residues, ends and D or L forms follow the SMILES beside them. ξ: configuration not given here. *: point of attachment. Phe(4-CONH2) = NC(=O)c1ccc(C[C@H](N)C(=O)O)cc1; Phe(4-COOH) = N[C@@H](Cc1ccc(C(=O)O)cc1)C(=O)O; Bip = N[C@@H](Cc1ccc(-c2ccccc2)cc1)C(=O)O; Phe(3-Cl) = N[C@@H](Cc1cccc(Cl)c1)C(=O)O; Phe(3-OMe) = COc1cccc(C[C@H](N)C(=O)O)c1; NMeY = CN[C@@H](Cc1ccc(O)cc1)C(=O)O; NMeF = CN[C@@H](Cc1ccccc1)C(=O)O; 4Pal = N[C@@H](Cc1ccncc1)C(=O)O; dTic = O=C(O)[C@H]1Cc2ccccc2CN1; Cha = N[C@@H](CC1CCCCC1)C(=O)O; NMeS = CN[C@@H](CO)C(=O)O; dPip = O=C(O)[C@H]1CCCCN1; ξR = N=C(N)NCCCC(N)C(=O)O; Carboxymethyl = O=C(O)C*; NMeA = CN[C@@H](C)C(=O)O; Orn = NCCC[C@H](N)C(=O)O; Dab = NCC[C@H](N)C(=O)O; ξV = CC(C)C(N)C(=O)O; Sar = CNCC(=O)O

What follows are molecules tested against T1, human PD-1 (Jurkat-PD-1 cells) / PE-labeled human PD-L1-Ig (Homo sapiens, UniProt Q15116) (assay: Jurkat-PD-1 Cell Binding High-Content Screening Assay (CBA); Jurkat hPD1-PDL1 assay). Details: Jurkat cell line over-expressing human PD-1; PE-labeled PD-L1-Ig 20 nM final; compound incubated 2 hours at 37° C.; read-out: Jurkat HPD1-PDL1 IC50.
T1 construct: expressed in transfected cells; host or cells: Jurkat cell line over-expressing human PD-1
T1 sequence (Q15116 25-288): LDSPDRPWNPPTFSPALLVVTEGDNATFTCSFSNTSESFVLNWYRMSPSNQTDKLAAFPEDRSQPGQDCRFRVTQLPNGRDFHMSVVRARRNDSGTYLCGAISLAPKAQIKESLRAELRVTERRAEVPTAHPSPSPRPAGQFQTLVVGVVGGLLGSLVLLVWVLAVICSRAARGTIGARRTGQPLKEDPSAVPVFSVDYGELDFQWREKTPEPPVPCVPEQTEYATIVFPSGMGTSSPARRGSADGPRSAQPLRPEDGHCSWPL
Summary of the method: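 Jurkat cells over-expressing human PD-1, seeded in DMEM with 10% fetal calf serum, were preincubated with compound for 2 hours at 37° C. PE-labeled human PD-L1-Ig was then added at 20 nM final, and cell-bound fluorescence was read by high-content imaging.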

| IC50 [nM] | SMILES |
| --- | --- |
| 270 | CC(C)C[C@@H]1NC(=O)[C@H](CCCCN)NC(=O)[C@H](Cc2ccccc2)N(C)C(=O)[C@H](C)N(C)C(=O)[C@H](CCCNC(=N)N)NC(=O)[C@H](Cc2ccc(-c3ccccc3)cc2)NC(=O)[C@H](C(C)C)NC(=O)[C@H](Cc2c[nH]c3ccccc23)NC(=O)[C@H](CC(=O)O)NC(=O)[C@H](Cc2ccc(O)cc2)NC(=O)[C@H](Cc2ccccc2)NC(=O)CSC[C@@H](C(=O)N[C@@H](CO)C(N)=O)NC(=O)[C@H]([C@@H](C)O)NC(=O)[C@H](C(C)C)NC1=O [Example 1359] ({CH2CO}-FYDWV[Bip]R[NMeA][NMeF]KLVTCS-NH2; thioether N-14) |
| 210 | CC(C)C1NC(=O)[C@H](Cc2c[nH]c3ccccc23)NC(=O)[C@H](CC(=O)O)NC(=O)[C@H](Cc2ccc(C(=O)O)cc2)NC(=O)[C@H](Cc2ccncc2)NC(=O)CSC[C@@H](C(=O)N[C@@H](C)C(N)=O)NC(=O)[C@H]([C@@H](C)O)NC(=O)[C@H](C(C)C)NC(=O)[C@H](CC2CCCCC2)NC(=O)[C@H](CCN)NC(=O)[C@H](Cc2ccc(O)cc2)N(C)C(=O)[C@H](CCCN)NC(=O)[C@H](CCC(=O)O)NC(=O)[C@H](Cc2ccc(-c3ccccc3)cc2)NC1=O (stereo partly drawn) [Example 1450] ({CH2CO}-[4Pal][Phe(4-COOH)]DW[ξV][Bip]E[Orn][NMeY][Dab][Cha]VTCA-NH2; thioether N-14) |
| 140 | CC(C)C[C@@H]1NC(=O)[C@H](Cc2cccc(Cl)c2)NC(=O)[C@H](CC(=O)O)NC(=O)[C@H](Cc2ccc(O)cc2)NC(=O)[C@H](Cc2ccccc2)NC(=O)CSC[C@@H](C(=O)N[C@@H](C)C(N)=O)NC(=O)[C@H](CO)NC(=O)[C@H](C(C)C)NC(=O)[C@H](CC(C)C)NC(=O)[C@H](CC(N)=O)NC(=O)CN(C)C(=O)[C@H](C)N(C)C(=O)[C@H](C(C)C)NC(=O)[C@H](Cc2ccc(-c3ccccc3)cc2)NC1=O [Example 1061] ({CH2CO}-FYD[Phe(3-Cl)]L[Bip]V[NMeA][Sar]NLVSCA-NH2; thioether N-14) |
| 250 | CC(C)C[C@@H]1NC(=O)[C@H](CCCNC(=N)N)NC(=O)[C@H](Cc2ccccc2)N(C)C(=O)[C@H](C)N(C)C(=O)[C@H](CCCNC(=N)N)NC(=O)[C@H](Cc2ccc(-c3ccccc3)cc2)NC(=O)[C@H](C(C)C)NC(=O)[C@H](Cc2c[nH]c3ccccc23)NC(=O)[C@H](CC(=O)O)NC(=O)[C@H](Cc2ccc(O)cc2)NC(=O)[C@H](Cc2ccc(OCC(=O)O)cc2)NC(=O)CSC[C@@H](C(=O)NCC(N)=O)NC(=O)[C@H](CO)NC(=O)[C@H](C(C)C)NC1=O [Example 1246] ({CH2CO}-Y(Carboxymethyl)YDWV[Bip]R[NMeA][NMeF]RLVSCG-NH2; thioether N-14) |
| 240 | CC(C)C[C@@H]1NC(=O)[C@H](Cc2c[nH]c3ccccc23)NC(=O)[C@H](CC(=O)O)NC(=O)[C@H](Cc2ccc(O)cc2)NC(=O)[C@H](Cc2ccccc2)NC(=O)CSC[C@@H](C(=O)NCC(N)=O)NC(=O)[C@H](CO)NC(=O)[C@H](C(C)C)NC(=O)[C@H](CC(C)C)NC(=O)[C@H](CC(N)=O)NC(=O)[C@H](CO)N(C)C(=O)[C@H](C)N(C)C(=O)[C@H](C(C)C)NC(=O)[C@H](Cc2ccc(-c3ccccc3)cc2)NC1=O [Example 1084] ({CH2CO}-FYDWL[Bip]V[NMeA][NMeS]NLVSCG-NH2; thioether N-14) |
| 480 | CC(C)C[C@@H]1NC(=O)[C@H](Cc2c[nH]c3ccccc23)NC(=O)[C@H](CC(=O)O)NC(=O)[C@H](Cc2ccc(O)cc2)NC(=O)[C@H](Cc2ccccc2)NC(=O)CSC[C@@H](C(=O)N[C@@H](C)C(N)=O)NC(=O)[C@H](Cc2cnc[nH]2)NC(=O)[C@H](C(C)C)NC(=O)[C@H](CC(C)C)NC(=O)[C@H](CC(N)=O)NC(=O)CN(C)C(=O)[C@H](C)N(C)C(=O)[C@H](C(C)C)NC(=O)[C@H](Cc2ccc(-c3ccccc3)cc2)NC1=O [Example 1127] ({CH2CO}-FYDWL[Bip]V[NMeA][Sar]NLVHCA-NH2; thioether N-14) |
| 80 | CC(C)C[C@@H]1NC(=O)[C@H](CCCNC(=N)N)NC(=O)[C@H](Cc2ccccc2)N(C)C(=O)[C@H](C)N(C)C(=O)[C@H](CCCNC(=N)N)NC(=O)[C@H](Cc2ccc(-c3ccccc3)cc2)NC(=O)[C@H](C(C)C)NC(=O)[C@H](Cc2c[nH]c3ccccc23)NC(=O)[C@H](CC(=O)O)NC(=O)[C@H](Cc2ccc(O)cc2)NC(=O)[C@H](Cc2ccccc2)NC(=O)CSC[C@@H](C(=O)N[C@H](C)C(N)=O)NC(=O)[C@H](CO)NC(=O)[C@H](C(C)C)NC1=O [Example 1331] ({CH2CO}-FYDWV[Bip]R[NMeA][NMeF]RLVSC[dA]-NH2; thioether N-14) |
| 720 | CC(C)C[C@@H]1NC(=O)C(CCCNC(=N)N)NC(=O)[C@H](Cc2ccccc2)N(C)C(=O)[C@H](C)N(C)C(=O)[C@H](CCCNC(=N)N)NC(=O)[C@H](Cc2ccc(-c3ccccc3)cc2)NC(=O)[C@H](C(C)C)NC(=O)[C@H](Cc2c[nH]c3ccccc23)NC(=O)[C@H](CC(=O)O)NC(=O)[C@H](Cc2ccc(O)cc2)NC(=O)[C@H](Cc2ccccc2)NC(=O)CSC[C@@H](C(=O)NCC(N)=O)NC(=O)[C@H](CCCNC(=N)N)NC(=O)[C@H](C(C)C)NC1=O (stereo partly drawn) [Example 1220] ({CH2CO}-FYDWV[Bip]R[NMeA][NMeF][ξR]LVRCG-NH2; thioether N-14) |
| 70 | CC(C)C[C@@H]1NC(=O)[C@H](Cc2c[nH]c3ccccc23)NC(=O)[C@H](CC(=O)O)NC(=O)[C@H](Cc2ccc(O)cc2)NC(=O)[C@H](Cc2ccccc2)NC(=O)CSC[C@@H](C(=O)N[C@@H](C)C(N)=O)NC(=O)[C@H](CO)NC(=O)[C@H](C(C)C)NC(=O)[C@H](CC(C)C)NC(=O)[C@H](CC(N)=O)NC(=O)[C@H]2CCCCN2C(=O)[C@H](C)N(C)C(=O)[C@H](C(C)C)NC(=O)[C@H](Cc2ccc(-c3ccccc3)cc2)NC1=O [Example 1038] ({CH2CO}-FYDWL[Bip]V[NMeA][dPip]NLVSCA-NH2; thioether N-14) |
| 270 | CC(C)C[C@@H]1NC(=O)[C@H](Cc2c[nH]c3ccccc23)NC(=O)[C@H](CC(=O)O)NC(=O)[C@H](Cc2ccc(O)cc2)NC(=O)[C@H](Cc2ccccc2)NC(=O)CSC[C@@H](C(=O)N[C@@H](C)C(N)=O)NC(=O)[C@H](CO)NC(=O)[C@H](C(C)C)NC(=O)[C@H](CC2CCCCC2)NC(=O)[C@H](CC(N)=O)NC(=O)CN(C)C(=O)[C@H](C)N(C)C(=O)[C@H](C(C)C)NC(=O)[C@H](Cc2ccc(-c3ccccc3)cc2)NC1=O [Example 1093] ({CH2CO}-FYDWL[Bip]V[NMeA][Sar]N[Cha]VSCA-NH2; thioether N-14) |
| 90 | CC(C)C[C@@H]1NC(=O)[C@H](Cc2c[nH]c3ccccc23)NC(=O)[C@H](CC(=O)O)NC(=O)[C@H](Cc2ccc(O)cc2)NC(=O)[C@H](Cc2ccccc2)NC(=O)CSC[C@@H](C(=O)N[C@@H](C)C(N)=O)NC(=O)[C@H](CO)NC(=O)[C@H](C(C)C)NC(=O)[C@H](CC(C)C)NC(=O)[C@H](CC(N)=O)NC(=O)[C@H]2Cc3ccccc3CN2C(=O)[C@H](C)N(C)C(=O)[C@H](C(C)C)NC(=O)[C@H](Cc2ccc(-c3ccccc3)cc2)NC1=O [Example 1049] ({CH2CO}-FYDWL[Bip]V[NMeA][dTic]NLVSCA-NH2; thioether N-14) |
| 850 | CC(C)C[C@@H]1NC(=O)[C@H](CCCNC(=N)N)NC(=O)[C@H](Cc2ccccc2)N(C)C(=O)[C@H](C)N(C)C(=O)[C@H](CCCNC(=N)N)NC(=O)[C@H](Cc2ccc(-c3ccccc3)cc2)NC(=O)[C@H](C(C)C)NC(=O)[C@H](Cc2c[nH]c3ccccc23)NC(=O)[C@H](CC(=O)O)NC(=O)[C@H](Cc2ccc(O)cc2)NC(=O)[C@H](C)NC(=O)CSC[C@@H](C(=O)NCC(N)=O)NC(=O)[C@H](CO)NC(=O)[C@H](C(C)C)NC1=O [Example 1203] ({CH2CO}-AYDWV[Bip]R[NMeA][NMeF]RLVSCG-NH2; thioether N-14) |
| 500 | CC(C)C[C@@H]1NC(=O)[C@H](CCCNC(=N)N)NC(=O)[C@H](Cc2ccc(O)cc2)N(C)C(=O)[C@H](C)N(C)C(=O)[C@H](CCCNC(=N)N)NC(=O)[C@H](Cc2ccc(-c3ccccc3)cc2)NC(=O)[C@H](C(C)C)NC(=O)[C@H](Cc2c[nH]c3ccccc23)NC(=O)[C@H](CC(=O)O)NC(=O)[C@H](Cc2ccc(O)cc2)NC(=O)[C@H](Cc2ccccc2)NC(=O)CSC[C@@H](C(=O)NCC(N)=O)NC(=O)[C@H](CO)NC(=O)[C@H](C(C)C)NC1=O [Example 1280] ({CH2CO}-FYDWV[Bip]R[NMeA][NMeY]RLVSCG-NH2; thioether N-14) |
| 330 | COc1cccc(C[C@@H]2NC(=O)[C@H](CC(=O)O)NC(=O)[C@H](Cc3ccc(O)cc3)NC(=O)[C@H](Cc3ccccc3)NC(=O)CSC[C@@H](C(=O)N[C@@H](C)C(N)=O)NC(=O)[C@H](CO)NC(=O)[C@H](C(C)C)NC(=O)[C@H](CC(C)C)NC(=O)[C@H](CC(N)=O)NC(=O)CN(C)C(=O)[C@H](C)N(C)C(=O)[C@H](C(C)C)NC(=O)[C@H](Cc3ccc(-c4ccccc4)cc3)NC(=O)[C@H](CC(C)C)NC2=O)c1 [Example 1106] ({CH2CO}-FYD[Phe(3-OMe)]L[Bip]V[NMeA][Sar]NLVSCA-NH2; thioether N-14) |
| 80 | CC(C)C[C@@H]1NC(=O)[C@H](CCCNC(=N)N)NC(=O)[C@H](Cc2ccccc2)N(C)C(=O)[C@H](C)N(C)C(=O)[C@H](CCCNC(=N)N)NC(=O)[C@H](Cc2ccc(-c3ccccc3)cc2)NC(=O)[C@H](C(C)C)NC(=O)[C@H](Cc2c[nH]c3ccccc23)NC(=O)[C@H](CC(=O)O)NC(=O)[C@H](Cc2ccc(O)cc2)NC(=O)[C@H](Cc2ccc(C(N)=O)cc2)NC(=O)CSC[C@@H](C(=O)NCC(N)=O)NC(=O)[C@H](CO)NC(=O)[C@H](C(C)C)NC1=O [Example 1257] ({CH2CO}-[Phe(4-CONH2)]YDWV[Bip]R[NMeA][NMeF]RLVSCG-NH2; thioether N-14) |
